We go through eleven molecules from publication PMC11343458, “Extracellular proteolysis of tandemly duplicated pheromone propeptides affords additional complexity to bacterial quorum sensing” (PLOS Biology, 2024).

Where two headings read alike, the source gives them in different places. No end group written: not given here.

Experiment [1] relates to extracellular proteases in supernatants of B. subtilis 168, WB800 and individual protease mutants. Nature of the experiment: Peptide maturation assay with B. subtilis supernatants, read by Rap^105 thermal shift. It is filed as biochemical, Bacillus subtilis. As to conditions: 100 μm peptide, 1 h room temperature; 8 single protease mutants. The protocol:
Overnight cultures of either B. subtilis strains 168, WB800, Δmpr, Δbpr, ΔaprE, Δepr, ΔwprA, Δvpr, ΔnprB, ΔnprE in GM1 media were diluted 1:20 into GM1 media and incubated at 37°C at 250 rpm. After 2 h, the OD600 were measured and adjusted to 0.5 with GM1 media, and 1 ml of bacterial cultures were centrifuged at 8,000 g for 2 min at room temperature and the supernatants were filtered using 0,2 μm nitrocellulose filters; 1 μl of 10 mM synthetic version of the mature pheromones (RRGHTA, RRGHTAS, SRGHTS, RGHTS, ERPVGT, Imat1^3T, Imat2^3T, Imat1^105, Imat2^105, and Imat3^105) were added to 99 μl of supernatant obtaining a final concentration of 100 μm and incubated for 1 h at room temperature. After incubation, reaction was stopped by incubation at 95°C for 5 min and sample was kept and used in Thermal Shift Assays (see before). In the kinetic assays, samples were inactivated at different times by incubation at 95°C for 5 min. Experiments were validated by experimental triplicates of 3 biological replicates.
(§1) The thermal shift assay was conducted in a CFX Opus Real-Time PCR system (Biorad). Samples of 20 μl containing 20× Sypro Orange (Sigma-Aldrich) and 50 μm of protein in a 20 mM Tris (pH 8) and 250 mM NaCl buffer or filtered supernatant in peptide maturation assays (see below) were loaded in 96-well PCR plates. In the cases where peptide interaction was analyzed, synthetic peptides at a final concentration of 100 μm were added to the assays. Samples were heated from 20 to 85°C in steps of 1 degree. Fluorescent intensity was plotted versus temperature and integrated with either CFX Opus Real-Time PCR automate model or GraphPad Prism software using a Boltzmann model to calculate melting temperatures.

For a further experiment, the system named is Rap^105. The experiment is described as follows: Thermal shift assay of Rap^105 with synthetic peptides. Type of experiment: binding, phage phi105. Conditions: 100 μm peptide, without supernatant incubation. The method, then:
as §1

In experiment [2] the test system is Rap^3T (PspoIIG-3xYFP sporulation reporter). Nature of the experiment: Sporulation assay (PspoIIG-3xYFP reporter) in strain overexpressing Rap^3T. Type of experiment: cell-based, Bacillus subtilis. As to conditions: strain 9836 hsRap(phi3T) PspoIIG-YFP, 1mM IPTG, 6 hrs in DSM, peptides added after 4.5hrs; for Mean %ON: mean of 3 repeats. An excerpt:
(§2) Bacillus strains AES9822 (SacA::PsrfA-3xYFP Cm), AES9824 (SacA::PspoIIG-3xYFP Cm), AES9834 (sacA::Psrf-3xYFP cm amyE::hsRap^3T spec), and AES9836 ([…] cm amyE::hsRap^3T spec) were constructed by natural transformation of the pAEC1003, pAEC1103, and pAEC2836 (see next section) plasmids into a PY79;xpf background Bacillus subtilis strain.
For sporulation experiments, the expression levels of spoIIG promoter reporter were determinate in a liquid culture from an overnight starter in LB were diluted 1:100 into Schaeffer’s sporulation medium (DSM). The strains were grown at 37° with shaking at 220 RPM, with or without addition of 1 mM IPTG. After 4.5 h of growth, peptides were added at a concentration of 10 μm. Following an additional 1.5 h of growth, YFP fluorescence was measured using a Beckman Coulter cytoflex flow cytometer.

The subject of experiment [3] is Rap^3T (PsrfA-3xYFP competence reporter). The experiment is described as follows: Competence reporter assay (PsrfA-3xYFP) in strain overexpressing Rap^3T. As to conditions: strain 9834 hsRap(phi3T) Psrf-YFP, 1mM IPTG, 4hrs in MC, peptides added after 1 hr; for YFP, Mean: mean of 3 repeats. It is filed as cell-based, Bacillus subtilis.
Excerpt: as §2
For competence experiments, the expression levels of the srf promoter reporter were determinate in a liquid culture generated from a single colony that was inoculated into MC competence media. The strains were grown at 37° with shaking at 220 RPM, with or without addition of 1 mM IPTG. […]
Background: In a reporter assay the amount or activity of a reporter protein is the signal.

The target in the next experiment is Rap^3T. Nature of the experiment: Microscale thermophoresis (MST) of peptide binding to Rap^3T. Details: species or system Bacillus phage phi3T. The protocol: Rap^3T was fluorescently labeled with NT-647 amine reactive dye from the Monolith NT Protein Labeling kit RED-NHS (NanoTemper Technologies) according to the manufacturer’s instructions. Briefly, 100 μm solution of the protein was mixed with 3× dye solution, incubated 30 min in dark, and then purified by gravity in a 5 ml size exclusion column equilibrated with dialysis buffer (20 mM Tris-HCl (pH 8), 250 mM NaCl) supplemented with 0.1% pluronic and 5% glycerol to remove free dye. Rap^105 was fluorescently labeled using His-Tag Labeling Kit RED-tris-NTA 2nd Generation. Briefly, 500 nM of protein was mixed with 5 μm dye in PBS supplemented with 0,02% of tween incubated in dark at room temperature for 30 min and centrifuged at 10,000 g for 10 min at 4°C, transferred to a fresh tube, and used in the assays immediately. Labeled proteins were used at a final optimized concentration of 20 nM in the case of Rap^3T and 250 nM in the case of Rap^105. For the measurements of EC50, a 16-point 2-fold serial dilution (ranged from 2 to 3 × 10^−5 μm) of the peptides were prepared in presence of the corresponding labeled Rap protein. After 15-min incubation at room temperature, samples were filled into standard Capillaries (K005, NanoTemper Technologies) and MST measurements were performed on a Monolith NT.115 (NanoTemper Technologies) in RED channel using 60% to 75% of LED excitation power and medium or high MST power for Rap^3T or Rap^105, respectively. […] Data analyses were performed with M.O. Affinity Analysis software (NanoTermper Technologies) applying cooperative (Hill coefficient) and non-cooperative (Kd model) models, with the first one yielding better fitting values.
(Microscale thermophoresis detects binding through changes in fluorescence in a small temperature gradient.)

Experiment [4] concerns the target Rap^3T (Bacillus phage phi3T). The experiment is described as follows: MST; Rap^3T labelled with NT-647 (RED-NHS) at 20 nM; peptides in a 16-point 2-fold dilution from 2 to 3 x 10^-5 μm; 20 mM Tris-HCl (pH 8), 250 mM NaCl, 0.1% pluronic, 5% glycerol; 15 min at room temperature; Hill model.
The target in experiment [5] is Rap^3T (Bacillus phage phi3T). The experiment is described as follows: thermal shift assay; Sypro Orange, 50 μm protein, 100 μm synthetic peptide, 20 mM Tris (pH 8), 250 mM NaCl (or filtered supernatant in the maturation assays), heated from 20 to 85°C.

Consider “ERPVGTLKLA [Imat1^105, immature synthetic peptide […]]”, for which the “maturation by supernatants of individual protease mutants of B. subtilis 168 (Rap^105 thermal shift)” value in experiment [1] is on record as “only for ΔwprA mutants”. For the same molecule, in the experiment on Rap^105, the “stabilization of Rap^105 in thermal shift assay” value was “minimal stabilization”.
For “LKLAERPVGT [Imat2^105, immature synthetic peptide […]]” the same measures were “maturated for all the supernatants” and “destabilization”.
In the case of RRGHTASIGFTDGHSYDIA, in experiment [2], the “Mean %ON” value was 42.9%; the “%ON (YFP), repeat I” value is given as 59.6%; the “YFP, repeat I” value came to 5294; the “% ON (YFP), repeat II” value is listed as 39.8%. Besides, in experiment [2], the “YFP, repeat II” value came to 2641; the “% ON (YFP), repeat III” value is 29.3%; the “YFP, repeat III” value is 2055. In experiment [3], the “YFP, Mean” value is given as 8810.67; the “YFP, repeat I” value is reported as 5838; the “YFP, repeat II” value was found to be 10641; the “YFP, repeat III” value turned out to be 9953.
As to RRGHTASIGFTDGHSYDIA [Long1], the EC50 on Rap^3T (MST, Hill model, target 2e-8, MST-Power Medium, Nano - RED, 25.0°C, replicate 1 (first merge-set, c1), read-out: EC50 (Hill fit)) stood at 133 nM; on Rap^3T (MST, Hill model, target 2e-8, MST-Power Medium, Nano - RED, 25.0°C, replicate 2 (second merge-set, c4), read-out: EC50 (Hill fit)) it was 134 nM; at Rap^3T (MST, Hill model, target 2e-8, MST-Power Medium, Nano - RED, 25.0°C, replicate 3 (third merge-set, c7), read-out: EC50 (Hill fit)), 186 nM.
With SIGFTDGHSYDIASRGHTS, in experiment [2], the “Mean %ON” value is recorded as 37.1%; the “%ON (YFP), repeat I” value was 51.1%; the “YFP, repeat I” value turned out to be 4889; the “% ON (YFP), repeat II” value was determined as 30.7%. In experiment [2], the “YFP, repeat II” value was found to be 2305; the “% ON (YFP), repeat III” value is 29.5%; the “YFP, repeat III” value was determined as 2121. In experiment [3], the “YFP, Mean” value was 8018.67; the “YFP, repeat I” value was determined as 5205; the “YFP, repeat II” value amounted to 10226; the “YFP, repeat III” value is recorded as 8625.
In the case of SIGFTDGHSYDIASRGHTS [Long2], the EC50 on Rap^3T (MO.Affinity export, one merged set, target 2e-8, On Time evaluation, hot region 4-5, excitation power 10, confidence limits 0 and #NUM! (no real fit), read-out: EC50 (Hill fit), merged set) stood at 19800 nM.
Regarding “SSDVKITERPVGT [Imat0^105, immature synthetic peptide […]]”, in experiment [1], the “maturation by supernatants of individual protease mutants of B. subtilis 168 (Rap^105 thermal shift)” value was “reduced or null maturation activity in ΔnprE, Δbpr, and ΔwprA mutants”. Further, the “stabilization of Rap^105 in thermal shift assay” value in the experiment on Rap^105 is “destabilization”.
In experiment [4], RRGHTAS yielded an EC50 of 6.7 nM. In experiment [5], the stabilization of the denaturation temperature is above 20 °C.
For SRGHTS the same measures were 20.8 nM and above 20 °C.
On the same counts, the results for RGHTS are 69.8 nM and above 20 °C.
RRGHTA gave an EC50 in experiment [4] of 5.28 nM. For the same molecule, in experiment [5], the dTm was 75 °C and the stabilization of the denaturation temperature was above 20 °C.

One may read the EC50 as the midpoint of the concentration-response curve.
